Experimental findings from patent US9593109B2, “Bicyclic agonists of GPR131 and uses thereof” (CYMABAY THERAPEUTICS, INC., priority 2011, dated 2017) are described below.

This test concerns the target T1, human GPR131 (Homo sapiens, UniProt Q8TDU6).
T1 construct: expressed in transfected cells
T1 sequence (Q8TDU6 1-330): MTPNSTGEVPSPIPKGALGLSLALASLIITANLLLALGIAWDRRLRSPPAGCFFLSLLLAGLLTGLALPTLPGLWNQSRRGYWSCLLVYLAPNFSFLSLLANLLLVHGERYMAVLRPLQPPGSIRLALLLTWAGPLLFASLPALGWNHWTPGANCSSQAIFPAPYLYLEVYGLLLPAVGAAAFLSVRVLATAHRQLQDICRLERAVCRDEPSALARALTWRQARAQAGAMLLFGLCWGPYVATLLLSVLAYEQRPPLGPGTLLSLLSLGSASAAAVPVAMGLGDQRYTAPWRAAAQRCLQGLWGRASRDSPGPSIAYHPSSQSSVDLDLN
Put plainly: Stimulation of cAMP (agonism of GPR131), FRET cAMP assay. Format: cell-based. Particulars: 0.5 h; 1.1 μM compound; compared to maximal stimulatory activity of lithocholic acid (LCA) determined at 3.3 μM; stable cell line expressing human GPR131; 37° C. for 30 minutes; read-out: Percent Activity @ 1.1 μM (of 3.3 uM LCA) (%). The method, then:
This assay was developed using a stable cell line expressing human GPR131.
To measure cAMP activity in response to GPR131 agonists, GPR131 cells suspended in DMEM/F12 medium with 1 mM IBMX were seeded in 384 well plates at 5000 cells per well. After incubating with test compounds at 37° C. for 30 minutes cAMP was measured using a fluorescene resonance energy transfer cAMP kit from Cis Bio (Bedford, Mass.) according to the manufacturer's instructions. Briefly, cells were lysed, and cAMP levels determined by competitive immunoassay using D2 labeled cAMP, and europium cryptate tagged anti cAMP antibody. Decreases in the FRET signal (fluorescence ratio (665 nm/620 […]) correspond to increases in intracellular cAMP levels.
Activities of test compounds in Table 1 below are expressed as percent activity at 1.1 μM compound compared to the maximal stimulatory activity of lithocholic acid (LCA) (determined at 3.3 μM LCA).
Background: Cyclic AMP is a second messenger, typically raised through Gs and lowered through Gi signalling.

On to `Clc1ccc(-n2nnnc2-c2c(-c3ccccc3Cl)nc3ccccn23)cc1` [Compound 500, 2-(2-Chlorophenyl)-3-(1-(4-chlorophenyl)-1H-tetrazol-5-yl)imidazo[1,2-a]pyridine], for which the activation at 1.1 µM was found to be 97.4%.

For `Clc1ccc(-n2cnnc2-c2c(-c3ccccc3Cl)nc3ccccn23)cc1` [Compound 501, 2-(2-Chlorophenyl)-3-(4-(4-chlorophenyl)-4H-1,2,4-triazol-3-yl)imidazo[1,2-a]pyridine], the activation at 1.1 µM worked out at 99.4%.

As for `Clc1ccc(-n2ncnc2-c2c(-c3ccccc3Cl)nc3ccccn23)cc1` [Compound 503, 2-(2-Chlorophenyl)-3-(1-(4-chlorophenyl)-1H-1,2,4-triazol-5-yl)imidazo[1,2-a]pyridine], the activation at 1.1 µM came out at 97.4%.

For the compound `Cc1nc(-c2c(-c3cc(Cl)ccc3Cl)nc3ccccn23)n(-c2ccc(Cl)cc2)n1` [Compound 504, 3-(1-(4-Chlorophenyl)-3-methyl-1H-1,2,4-triazol-5-yl)-2-(2,5-dichlorophenyl)imidazo[1,2-a]pyridine], the activation at 1.1 µM is 97.4%.

Regarding `Cc1nnc(-c2c(-c3cc(Cl)ccc3Cl)nc3ccccn23)n1-c1ccc(Cl)cc1` [Compound 505, 3-(4-(4-Chlorophenyl)-5-methyl-4H-1,2,4-triazol-3-yl)-2-(2,5-dichlorophenyl)imidazo[1,2-a]pyridine], the activation at 1.1 µM was found to be 99.1%.

With `Clc1ccc(-n2ccnc2-c2c(-c3cc(Cl)ccc3Cl)nc3ccccn23)cc1` [Compound 506, 3-(1-(4-Chlorophenyl)-1H-imidazol-2-yl)-2-(2,5-dichlorophenyl)imidazo[1,2-a]pyridine], the activation at 1.1 µM is 99.4%.

As for `Clc1ccc(-n2cncc2-c2c(-c3cc(Cl)ccc3Cl)nc3ccccn23)cc1` [Compound 507, 3-(1-(4-Chlorophenyl)-1H-imidazol-5-yl)-2-(2,5-dichlorophenyl)imidazo[1,2-a]pyridine], the activation at 1.1 µM worked out at 100%.

As to `CN(C)c1ccc(-n2cnnc2-c2c(-c3cc(Cl)ccc3Cl)nc3ccccn23)cc1` [Compound 510, 4-(3-(2-(2,5-Dichlorophenyl)imidazo[1,2-a]pyridin-3-yl)-4H-1,2,4-triazol-4-yl)-N,N-dimethylaniline], the activation at 1.1 µM turned out to be 100%.

With `FC(F)(F)c1ccc(-n2cnnc2-c2c(-c3cc(Cl)ccc3Cl)nc3ccccn23)cc1` [Compound 513, 2-(2,5-Dichlorophenyl)-3-(4-(4-(trifluoromethyl)phenyl)-4H-1,2,4-triazol-3-yl)imidazo[1,2-a]pyridine], the activation at 1.1 µM stood at 100%.

Consider `Clc1ccc(Cl)c(-c2nc3ccccn3c2-c2nncn2-c2ccc3[nH]ncc3c2)c1` [Compound 514, 5-(3-(2-(2,5-Dichlorophenyl)imidazo[1,2-a]pyridin-3-yl)-4H-1,2,4-triazol-4-yl)-1H-indazole], for which the activation at 1.1 µM was determined as 93.3%.

As to `N#Cc1ccc(-n2cnnc2-c2c(-c3cc(Cl)ccc3Cl)nc3ccccn23)cc1` [Compound 515, 4-(3-(2-(2,5-Dichlorophenyl)imidazo[1,2-a]pyridin-3-yl)-4H-1,2,4-triazol-4-yl)benzonitrile], the activation at 1.1 µM is 100%.

For the compound `Clc1ccc(Cl)c(-c2nc3ccccn3c2-c2nncn2-c2ccc3cn[nH]c3c2)c1` [Compound 516, 6-(3-(2-(2,5-Dichlorophenyl)imidazo[1,2-a]pyridin-3-yl)-4H-1,2,4-triazol-4-yl)-1H-indazole], the activation at 1.1 µM is 99.8%.

With `Clc1ccc(Cl)c(-c2nc3ccccn3c2-c2nncn2-c2ccc3scnc3c2)c1` [Compound 518, 5-(3-(2-(2,5-Dichlorophenyl)imidazo[1,2-a]pyridin-3-yl)-4H-1,2,4-triazol-4-yl)benzo[d]thiazole], the activation at 1.1 µM came to 98.4%.

Regarding `Cn1ncc2cc(-n3cnnc3-c3c(-c4cc(Cl)ccc4Cl)nc4ccccn34)ccc21` [Compound 519, 5-(3-(2-(2,5-Dichlorophenyl)imidazo[1,2-a]pyridin-3-yl)-4H-1,2,4-triazol-4-yl)-1-methyl-1H-indazole], the activation at 1.1 µM came to 99.9%.
